How the values were obtained:
[1] = (R)-30 levels in serum of keratitis mice; format: in vivo; details: C57BL/6, mouse, 5 µL of 1 mg/mL (R)-30 per dose (nine doses, every 8 h), keratitis mice after topical ocular dosing
Procedure: 3.15 Bioanalytical sample preparation of keratitis samples for determination of
concentration of ( R)-30 in eye and serum
All PD serum and eye homogenate samples were analyzed via HPLC -MS/MS using an Agilent
1290 Infinity II HPLC system and coupled to an AB Sciex QTrap6500+ mass spectrometer.
First, a calibration curve was prepared by spiking different concentrations of (R)-30 into the
respective matrix (mouse serum (pooled, from CD -1 mice) for plasma samples, isotonic
sodium chloride solution for eye homogenate samples). Caffeine was used as an internal
standard. In addition, quality control samples (QCs) were prepared for (R)-30 with the
respective matrix. The following extraction procedure was used: 7.5 μL of a serum sample
(calibration samples, QCs or PD samples) was extracted with 37.5 μL of methanol containing
12.5 ng/mL of caffeine as internal standard for 5 min at 2,000 r pm on an Eppendorf MixMate®
vortex mixer. Then samples (serum) were spun down at 13,000 rpm for 5 min. Supernatants
were transferred to standard HPLC-glass vials. 50 μL of an eye homogenate sample […]
standard were analyzed using MultiQuant 3.0 software (AB Sciex). […]
for quantification are marked with a ‘Q’ in the table, the other MS/MS pairs for the respective
compound were used for qualification. Peaks of PD samples were quantified using the
calibration curve. The accuracy of the calibration curve was determined using QC s […]

[2] = Tolerability study in male CD1 mice, repeated TID intravenous dosing; format: in vivo; details: mouse, 300 and 600 mg/kg/day, 3 days
Procedure: Table S8: Percent (%) inhibition of the metabolic activity of three human cell lines HepG2 (hepatocellular carcinoma cells), HEK293 (human embryonic kidney 293 cells) and A549 (lung carcinoma epithelial cells). Results are means and SD of at least two independent ex periments.
3.10 Evaluation of Zebrafish embryo toxicity
The experiment was performed according to a procedure described in the literature with minor modifications using zebrafish embryos of the AB wild -type line at 1 day post fertilization (dpf). A detailed protocol has been given in our recent publication.[16]
Starting exposure ar 2 dpf. Ten larvae were tested for each condition. Dpf: days post fertilization.
3.11 Tolerability study in male CD1 mice
This in vivo experiment was carried out at the CRO Selvita (Zagreb, Croatia). The study was performed in an AAALAC I- approved Facility. The standard study plan relating to this study was reviewed by the Ethics Committee (CARE- Zagreb) as required by International Laws/Regulations and Croatian Low on Animal Welfare (“The Animal Protection Act”, Official Gazette, NN 135/06 and NN 37/13) and Animal Welfare Officer. Animals were kept in solid […]
The observations and examinations that were made, comprise clinical signs, body weight, food consumption, macroscopy at termination and organ weights. Mortality was recorded twice a day, i.e. in the morning and at the end of the working day.

[3] = Plasma stability, Göttingen minipig; format: in vitro ADME; details: read-out: Minipig Plasma t1/2
Procedure: (§1) To determine stability in plasma, the compound (1 µM) was incubated with pooled CD -1 […]
(§2) mouse/human/Wistar rat or Göttingen minipig plasma (Neo Biotech, Nanterre, France).
(§3) Samples were taken by mixing aliquots with 4 volumes of acetonitrile containing internal […]
(§4) standard (125 nM diphenhydramine). The plasma stability of procain, propantheline and diltiazem were determined in parallel to confirm the enzymatic activity. Samples were stored […]
(§5) on ice until the end of the incubation and precipitated protein was removed by centrifugation […]
(§6) (15 min, 4 °C, 4,000 g, two centrifugation steps). Concentration of the remaining test compound at the different time points was analyzed by HPLC-MS/MS (TSQ Quantum Access MAX, […]
(§7) Thermo Fisher, Dreieich, Germany) and used to determine half-life (t1/2).
(§8) Table S2: Additional in vitro ADMET data for selected dipeptides. n.d.: not determined.
(§9) Kinetic Liver S9 Clint [µL/mg/min] Plasma t1/2 [min] LogD7.4 […]
(§10) pH 7.4 [µM] Mouse Human Mouse Human

[4] = Plasma stability, Wistar rat; format: in vitro ADME; details: read-out: Rat Plasma t1/2
Procedure: as §1, §2, §3, §4, §5, §6, §7, §8, §9, §10

Compound	concentration at 3 days post infection [1] [nM]	mortality, body weight, clinical signs [2]	half-life at 1 µM [3] [h]	half-life at 1 µM [4] [h]
CC(=O)c1ccc(NC(=O)[C@@H](NC(=O)[C@@H](CC(C)C)P(=O)(O)O)C(C)C)cc1 [(R)‐30]	< 500	no treatment–related mortality, nor effects on body weight or clinical signs		
CC(=O)c1ccc(NC(=O)[C@@H](NC(=O)C(CC(C)C)P(=O)(O)O)C(C)C)cc1 (stereo partly shown) [compound 30]			> 4	> 4
